The values below are quoted from earlier work in patent US20120071320A1, “LIQUID AGRICULTURAL FORMULATIONS OF IMPROVED STABILITY” (priority 2010, published 2012).

The conditions of this series: aqueous buffer solutions, both acidic and basic conditions.

`COC(=O)c1sccc1S(=O)(=O)NC(=O)Nc1nc(C)nc(OC)n1` [thifensulfuron methyl]: the hydrolysis rate result is given as “relatively fast”.
